One compound from patent publication US11219623B2, “Inflammasome inhibition for the treatment of Parkinson's disease, Alzheimer's disease and multiple sclerosis” (University of Kentucky Research Foundation, priority 2015, dated 2022) can be followed below.

One may read the solubility as how much of the substance goes into solution per volume. High values mean a readily soluble substance, low ones a poorly soluble substance.

≈ marks a conversion by molar mass, not a printed value. Entries after “also recorded” stand apart in the source; their conditions may differ.

One data set deals with mtDNA. Briefly: mtDNA levels, real-time quantitative PCR, primary mouse RPE cells. Format: cell-based. Conditions: normalized to chromosomal DNA, n=4. An excerpt:
The present disclosure further provides the results of additional experiments in FIG. 21-FIG. 23.

The next data set has as its system HeLa cells. Nature of the data set: Cytotoxicity of Alu RNA expression plasmid (pAluA), MTS proliferation assay. Format: cell-based, human. Conditions: pAluA vs pUC19. From the text:
Meanwhile, in certain embodiments, […] protects against cytotoxicity induced by plasmid expressing Alu RNA in vitro.
(Tetrazolium dyes change colour on reduction, which living cells bring about.)

A further data set deals with Alu RNA. Nature of the data set: Alu RNA levels, Northern blotting, primary human RPE cells. Format: cell-based. An excerpt:
As presented in FIG. 3, primary human RPE cells treated with antisense oligonucleotides targeting DICER1 (Dcr as) (lane 3 (third lane from left)) show increased Alu RNA levels in the nuclear compartment compared to control antisense oligonucleotides (Ctr as) (lane 1 (leftmost)), monitored by Northern blotting using an Alu-specific probe.
For example, primary human RPE cells may be transfected with Alu RNA, with or without d4T. […] U6 (bottom row) is shown as loading control for nuclear fraction in FIG. 4.
And FIG. 45 presents a Northern blot of biotin-UTP-labeled Alu RNA-transfected primary human RPE cells.

In data set [1] the test system is IL-1 beta. Briefly: Nigericin-induced IL-1 beta maturation, mouse bone marrow-derived macrophages. Conditions: 100, 250 uM. Format: cell-based.
For data set [2], the system named is mice. Briefly: Iron-induced RPE degeneration in mice. Format: in vivo, mouse. Conditions: intraperitoneal 25 mg/kg days 1 to 6; read day 7.
For data set [3], the system named is IRAK4. Nature of the data set: Alu RNA-induced IRAK4 phosphorylation, primary human RPE cells.
The next data set can be described thus: Solubility in water. Format: physicochemical. Conditions: aqueous buffer; Water pH 7.2 at 37° C.
Data set [4] concerns Caspase-1. Nature of the data set: Alu RNA-induced Caspase-1 activation, western blot, primary human RPE cells. Format: cell-based. From the text: The bottom row in FIG. 5 is a vinculin loading control.
A general note: A western blot detects proteins with antibodies after separation by electrophoresis.

For the next data set, the system named is NLRP3 mRNA. Briefly: NLRP3 priming (mRNA) induced by Alu RNA, primary human RPE cells. Format: cell-based. Conditions: 100 uM; 16 hours; normalized to 18S RNA. On the procedure: Indeed, as provided in the bar graph of FIG. 13, Alu RNA transfection increases NLRP3 mRNA levels in primary human RPE cells at 16 hours, an event termed “priming” (Y-axis) compared to mock (transfection reagent alone).

Data set [5] deals with wild-type mice. Briefly: pAlu-induced RPE degeneration, mouse model of dry AMD. Format: in vivo. Conditions: daily oral administration. On the procedure: Mouse studies were conducted to study treatment with NRTIs or derivatives.
For data set [6], the system named is mice. Briefly: Graft-versus-host disease model, mice receiving allogeneic bone marrow and T cells. Conditions: vs. 0% in saline treated controls. Format: in vivo, mouse. From the text: To explore the potential therapeutic relevance of NRTIs beyond the Alu-induced model of geographic atrophy (GA), it was hypothesized that if NRTIs function as generic inflammasome inhibitors, then they might be broadly useful in other animal models of disease that are also driven by P2X7.

In data set [7] the test system is mitochondrial reactive oxygen species (mtROS). Briefly: Mitochondrial ROS caused by Alu expression, MitoSox assay, primary human RPE cells. Format: cell-based. On the procedure:
After 15 hours cells were co-stained for mtROS (red) and for cell count, nuclei (blue; Hoechst DNA stain).
In FIG. 54, mitochondrial reactive oxygen species (ROS) were visualized with MitoSox (Red) and cell nuclei with Hoechst (Blue).

Data set [8] relates to IRAK4. Nature of the data set: Alu RNA-induced IRAK4 phosphorylation, primary mouse RPE cells. Format: cell-based.
Data set [9] relates to Caspase-1. Nature of the data set: Nigericin-induced Caspase-1 activation, mouse bone marrow-derived macrophages. Conditions: 100, 250 uM. Format: cell-based.
In data set [10] the test system is IRAK4. Nature of the data set: LPS/ATP-induced IRAK4 phosphorylation, primary human RPE cells. Format: cell-based. Conditions: 25/100 uM. An excerpt:
(§1) The loading control in FIG. 8 is vinculin. Furthermore, as shown, LPS and ATP activate the NLRP3 inflammasome only in combination, thus treatment with one or the other alone is useful as a control for this experiment.

Data set [11] relates to IL-1 beta. Briefly: MSU-induced IL-1 beta secretion from PMA-differentiated THP-1 monocytes, ELISA. Format: cell-based, human. Conditions: 25-1000 uM. An excerpt: Human THP-1 monocytes were differentiated into macrophages with PMA.
To illustrate this, human THP-1 monocytes were differentiated into macrophages with PMA. Treatment with MSU increased IL-1 beta secretion compared to non-treated cells. […]
Background: In an ELISA, binding on a coated surface is turned into a signal by an enzyme label.

Data set [12] relates to wild-type mice. Briefly: Alu RNA-induced RPE degeneration, mouse model of dry AMD. Conditions: co-delivered to the vitreous humor; one week after delivery.
In a further data set the target is T1, rat P2X7 receptor (Rattus norvegicus, UniProt Q64663).
T1 construct: expressed in transfected cells; host or cells: HEK293 cells
T1 sequence (Q64663 whole entry): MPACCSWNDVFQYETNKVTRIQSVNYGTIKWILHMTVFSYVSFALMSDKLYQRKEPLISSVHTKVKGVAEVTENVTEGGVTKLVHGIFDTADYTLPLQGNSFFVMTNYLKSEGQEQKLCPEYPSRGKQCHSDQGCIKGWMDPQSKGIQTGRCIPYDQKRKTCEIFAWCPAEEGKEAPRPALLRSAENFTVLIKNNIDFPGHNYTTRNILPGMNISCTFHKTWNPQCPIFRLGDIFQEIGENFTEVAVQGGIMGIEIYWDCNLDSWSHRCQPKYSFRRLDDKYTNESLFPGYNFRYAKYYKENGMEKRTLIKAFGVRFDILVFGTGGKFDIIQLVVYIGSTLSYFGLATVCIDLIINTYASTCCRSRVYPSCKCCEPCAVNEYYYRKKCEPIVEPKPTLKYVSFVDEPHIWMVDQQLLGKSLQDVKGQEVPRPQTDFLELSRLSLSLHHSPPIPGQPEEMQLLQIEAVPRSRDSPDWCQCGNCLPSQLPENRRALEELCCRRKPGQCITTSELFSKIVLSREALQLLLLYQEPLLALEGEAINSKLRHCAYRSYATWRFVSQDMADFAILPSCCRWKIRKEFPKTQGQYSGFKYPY
Briefly: P2X7 cation channel function, patch clamp, HEK293 cells expressing rat P2X7. Format: cell-based. Conditions: rat P2X7 in HEK293.

The subject of the next data set is primary human RPE cells. Briefly: ATP release induced by Alu RNA, ATP-dependent luciferase assay, primary human RPE cells. Format: cell-based. Conditions: cell culture supernatant. From the text: Alu RNA (Kerur et al., 2013) and LPS/ATP (Qu et al., 2011) activate the inflammasome via the ATP receptor P2X7.
(FIG. 16) Primary human RPE cells treated with Alu RNA for the times indicated release ATP. […] ATP was detected using an ATP-dependent luciferase assay.

In data set [13] the test system is human LINE-1 retrotransposon. Nature of the data set: EGFP cell culture L1 retrotransposition assay in HeLa cells. Conditions: 7 days after transfection, flow cytometry. Format: cell-based.
The test system of data set [14] is Caspase-1. Briefly: LPS/ATP-induced Casp-1 activation, primary human RPE cells. Format: cell-based. Conditions: 25/100 uM.
Source text: as §1

The test system of another data set is IL-1 beta mRNA. Nature of the data set: IL-1beta priming (mRNA) induced by Alu RNA, primary human RPE cells. Format: cell-based. Conditions: 100 uM; 24 hours; normalized to 18S RNA. On the procedure: FIG. 14 illustrates that Alu RNA transfection increases IL-1 beta mRNA levels in primary human RPE cells at 24 hours, an event termed “priming”, (Y-axis) compared to mock (transfection reagent alone).

`Cc1cn([C@H]2C=C[C@@H](CO)O2)c(=O)[nH]c1=O` [d4T, 2′3′ dideoxythymidine]: the mtDNA levels entry with mtDNA is on record as “reduces mtDNA levels”. Moreover, the “cell death induced by Alu overexpression (viability, MTS)” value in the data set on HeLa cells is listed as “prevented cell death”. For the same compound, the “Alu RNA levels, nuclear compartment” value in the data set with Alu RNA (cells treated with antisense oligonucleotides targeting DICER1) is on record as “does not reduce Alu RNA levels”. Further, the “Alu RNA levels after Alu RNA transfection” value in the data set on Alu RNA (nuclear fraction 1, 4, or 24 hours (FIG. 4), biotin-UTP-labeled Alu RNA (FIG. 45)) is “does not change Alu RNA levels; also recorded: did not reduce Alu RNA levels”. In addition, in the data set with IL-1 beta [1], the “IL-1 beta maturation (18 and 22 kDa forms) induced by nigericin” value was “inhibits IL-1 beta maturation”. The “Iron-induced RPE degeneration” value in the data set with mice [2] is recorded as “blocked the development of RPE degeneration”. Further, the “IRAK4 phosphorylation induced by Alu RNA” value in the data set on IRAK4 [3] and in the data set with IRAK4 [8] was “blocks phosphorylation of IRAK4” throughout. In the data set “Solubility in water”, this compound displayed a solubility of 106 mg/mL (≈ 473 mM). In addition, the “Alu RNA-induced Caspase-1 maturation” value in the data set on Caspase-1 [4] (100 uM, 24 hours after Alu administration) is reported as “blocked”. Besides, the “Alu RNA-induced Caspase-1 activation/cleavage” value in the data set on Caspase-1 [4] (concentration not given) is given as “prevents Caspase 1 cleavage”. Besides, in the data set on NLRP3 mRNA, the “NLRP3 mRNA levels (priming) induced by Alu RNA” value is “reduces NLRP3 priming”. Besides, the “pAlu-induced RPE degeneration” value with wild-type mice [5] is reported as “blocked RPE degeneration”. Moreover, the survival with mice [6] is recorded as 30-70%. For the same compound, in data set [7], the “mitochondrial ROS caused by Alu expression (pAluA)” value is listed as “reduces mitochondrial ROS; also recorded: prevents pAlu-induced mitochondrial ROS generation”. Moreover, the “Caspase-1 activation (active p20 band) induced by nigericin” value in the data set on Caspase-1 [9] is “inhibits”. In addition, in the data set with IRAK4 [10], the “IRAK4 phosphorylation induced by LPS/ATP” value is reported as “blocks”. The “IL-1beta secretion induced by MSU” value in the data set on IL-1 beta [11] was “did not significantly affect IL-1beta secretion”. Also, the “Alu RNA-induced RPE cell death” value in the data set on wild-type mice [12] was “prevents Alu RNA-induced RPE cell death in a dose-dependent manner”. The “P2X7 cation channel function” value on rat P2X7 receptor is “did not significantly modulate P2X7 cation channel function”. Further, the “ATP release induced by Alu RNA” value in the data set on primary human RPE cells is on record as “does not block release of ATP; also recorded: did not affect ATP release”. Also, the “L1 retrotransposition (EGFP-positive cells)” value in [13] is reported as “blocked L1 retrotransposition”. For the same compound, the “Casp-1 activation induced by LPS/ATP” value in the data set on Caspase-1 [14] is reported as “blocks Casp-1 activation”. Besides, in the data set with IL-1 beta mRNA, the “IL-1 beta mRNA levels (priming) induced by Alu RNA” value is given as “reduces IL-1beta priming”.
